From patent US20210147455A1 (SHAANXI SYNTHETIC PHARMACEUTICAL CO., LTD., priority 2018, published 2021)
Converted amounts (≈) assume the structure as drawn. Where two headings read alike, the source gives them in different places.

Assays:
[1] = Hygroscopicity study (Chinese Pharmacopoeia 2015, 9103); type: physicochemical; conditions: for Hygroscopic weight gain: 25° C.±1° C., saturated ammonium chloride solution, 24 hours
Protocol: Test method: • 1. A dried glass weighing bottle with stopper (having an outer diameter of 50 mm and a height of 15 mm) was placed in a thermostatic drier (a saturated ammonium chloride solution was placed on the lower part of the thermostatic drier) at an appropriate temperature of 25° C.±1° C. on the day earlier before the test, and the weight (m1) of weighing bottle was precisely weighed. • 2. An appropriate amount of test sample was taken and spread in the weighing bottle, and the thickness of the test sample was controlled to about 1 mm, and the weight (m2) was precisely weighed. • 3. The weighing bottle was opened and was placed, together with the bottle cap, under the above mentioned constant temperature and humidity condition for 24 hours. • 4. The weighing bottle was capped and precisely weighed to obtain the weight (m3).
Description of hygroscopicity characterization and delimitation of hygroscopicity weight gain: Deliquescence: enough moisture is absorbed to form a liquid. […] Slightly hygroscopic: hygroscopic weight gain is less than 2% but not less than 0.2%. Not or hardly hygroscopic: hygroscopic weight gain is less than 0.2%.

[2] = Stability experiments under 25° C.±2° C. and 65% R.H±5% R.H; conditions: 25° C./65% R.H
Excerpt: • 1. […] The results are shown in detail in the following table.

[3] = Stability experiments under 40° C.±2° C. and 75% R.H±5% R.H (accelerated test); type: physicochemical; conditions: 40° C./75% R.H
[4] = Solubility study
[5] = day 5, High temperature of 40° C.
[6] = day 10, High temperature of 40° C.

SMILES: CCC(C(C)OP(=O)([O-])[O-])n1ncn(-c2ccc(N3CCN(c4ccc(OCC5COC(Cn6cncn6)(c6ccc(F)cc6F)C5)cc4)CC3)cc2)c1=O.C[N+](C)(C)CCO.C[N+](C)(C)CCO.O.O.O.O.O (stereo not shown) [Comparative Example 2, Posaconazole Phosphate Bicholinate Pentahydrate]
- Hygroscopic weight gain [1]: 11.81%
- Content ([2]; month 0): 99.87%
- Description ([2]; month 0): White
- Related substance ([2]; month 0): 0.13%
- Content ([2]; month 3): 99.86%
- Description ([2]; month 3): White
- Related substance ([2]; month 3): 0.14%
- Content ([2]; month 6): 99.81%
- Description ([2]; month 6): White
- Related substance ([2]; month 6): 0.19%
- Content ([2]; month 9): 99.75%
- Description ([2]; month 9): White
- Related substance ([2]; month 9): 0.25%
- Content ([2]; month 12): 99.71%
- Description ([2]; month 12): White
- Related substance ([2]; month 12): 0.29%
- Content ([2]; month 24): 99.18%
- Description ([2]; month 24): White
- Related substance ([2]; month 24): 0.82%
- Content ([3]; month 0): 99.87%
- Description ([3]; month 0): White
- Related substance ([3]; month 0): 0.13%
- Content ([3]; month 1): 99.86%
- Description ([3]; month 1): White
- Related substance ([3]; month 1): 0.14%
- Content ([3]; month 2): 99.85%
- Description ([3]; month 2): White
- Related substance ([3]; month 2): 0.16%
- Content ([3]; month 3): 99.79%
- Description ([3]; month 3): White
- Related substance ([3]; month 3): 0.21%
- Content ([3]; month 6): 99.64%
- Description ([3]; month 6): White
- Related substance ([3]; month 6): 0.36%

SMILES: CC[C@@H]([C@H](C)O)n1ncn(-c2ccc(N3CCN(c4ccc(OC[C@@H]5CO[C@@](Cn6cncn6)(c6ccc(F)cc6F)C5)cc4)CC3)cc2)c1=O [Posaconazole]
- solubility ([4]; isopropanol, organic solvent or mixture): 100 µg/mL (≈ 143 µM)
- solubility ([4]; methanol, organic solvent or mixture): 60 µg/mL (≈ 85.6 µM)
- solubility ([4]; water): 50 µg/mL (≈ 71.3 µM)

SMILES: CC[C@@H]([C@H](C)OP(=O)(O)O)n1ncn(-c2ccc(N3CCN(c4ccc(OC[C@@H]5CO[C@@](Cn6cncn6)(c6ccc(F)cc6F)C5)cc4)CC3)cc2)c1=O [Example 3, Posaconazole Phosphate Monocholinate Pentahydrate]
- Hygroscopic weight gain [1]: 0.15%
- Conclusion (hygroscopicity) ([1]; after 24 hours): No hygroscopicity
- Content ([2]; month 0): 99.37%
- Description ([2]; month 0): White
- Related substance ([2]; month 0): 0.13%
- Content ([2]; month 3): 99.87%
- Description ([2]; month 3): White
- Related substance ([2]; month 3): 0.13%
- Content ([2]; month 6): 99.87%
- Description ([2]; month 6): White
- Related substance ([2]; month 6): 0.13%
- Content ([2]; month 9): 99.84%
- Description ([2]; month 9): White
- Related substance ([2]; month 9): 0.16%
- Content ([2]; month 12): 99.84%
- Description ([2]; month 12): White
- Related substance ([2]; month 12): 0.16%
- Content ([2]; month 24): 99.79%
- Description ([2]; month 24): White
- Related substance ([2]; month 24): 0.21%
- Content ([3]; month 0): 99.87%
- Description ([3]; month 0): White
- Related substance ([3]; month 0): 0.13%
- Content ([3]; month 1): 99.87%
- Description ([3]; month 1): White
- Related substance ([3]; month 1): 0.13%
- Content ([3]; month 2): 99.87%
- Description ([3]; month 2): White
- Related substance ([3]; month 2): 0.13%
- Content ([3]; month 3): 99.86%
- Description ([3]; month 3): White
- Related substance ([3]; month 3): 0.14%
- Content ([3]; month 6): 99.85%
- Description ([3]; month 6): White
- Related substance ([3]; month 6): 0.15%
- Content (day 0): 99.87%
- Description (day 0): White
- Related substance (day 0): 0.13%
- Content (day 5, High humidity of 92.5%): 99.86%
- Description (day 5, High humidity of 92.5%): White
- Related substance (day 5, High humidity of 92.5%): 0.14%
- Content [5]: 99.87%
- Description [5]: White
- Related substance [5]: 0.13%
- Content (day 5, Illumination of 4500LX): 99.87%
- Description (day 5, Illumination of 4500LX): White
- Related substance (day 5, Illumination of 4500LX): 0.13%
- Content (day 10, High humidity of 92.5%): 99.86%
- Description (day 10, High humidity of 92.5%): White
- Related substance (day 10, High humidity of 92.5%): 0.14%
- Content [6]: 99.85%
- Description [6]: White
- Related substance [6]: 0.15%
- Content (day 10, Illumination of 4500LX): 99.86%
- Description (day 10, Illumination of 4500LX): White
- Related substance (day 10, Illumination of 4500LX): 0.14%

SMILES: CC[C@@H]([C@H](C)OP(=O)([O-])[O-])n1ncn(-c2ccc(N3CCN(c4ccc(OC[C@@H]5CO[C@@](Cn6cncn6)(c6ccc(F)cc6F)C5)cc4)CC3)cc2)c1=O.O.O.O.O.O.[Na+].[Na+] [Comparative Example 9, Posaconazole Phosphate Disodium Salt Pentahydrate]
- Hygroscopic weight gain [1]: 12.01%
- Content ([2]; month 0): 99.87%
- Description ([2]; month 0): White
- Related substance ([2]; month 0): 0.13%
- Content ([2]; month 3): 99.73%
- Description ([2]; month 3): White
- Related substance ([2]; month 3): 0.27%
- Content ([2]; month 6): 99.68%
- Description ([2]; month 6): White
- Related substance ([2]; month 6): 0.32%
- Content ([2]; month 9): 99.51%
- Description ([2]; month 9): White
- Related substance ([2]; month 9): 0.49%
- Content ([2]; month 12): 99.41%
- Description ([2]; month 12): White
- Related substance ([2]; month 12): 0.59%
- Content ([2]; month 24): 98.87%
- Description ([2]; month 24): White
- Related substance ([2]; month 24): 1.13%
- Content ([3]; month 0): 99.87%
- Description ([3]; month 0): White
- Related substance ([3]; month 0): 0.13%
- Content ([3]; month 1): 99.72%
- Description ([3]; month 1): White
- Related substance ([3]; month 1): 0.28%
- Content ([3]; month 2): 99.62%
- Description ([3]; month 2): White
- Related substance ([3]; month 2): 0.38%
- Content ([3]; month 3): 99.45%
- Description ([3]; month 3): White
- Related substance ([3]; month 3): 0.55%
- Content ([3]; month 6): 99.32%
- Description ([3]; month 6): White
- Related substance ([3]; month 6): 0.68%
